The record followed here is publication PMC12188521 (RSC Advances, 2025).

What is called IC50 is the concentration at which inhibition is half-maximal. Read a high IC50 as lower potency.

For assay [1], the target named is butyrylcholinesterase (BuChE) (Homo sapiens, UniProt P06276). In words: In vitro butyrylcholinesterase inhibitory activity. The assay is classed as biochemical.
The target of assay [2] is acetylcholinesterase (AChE) (Homo sapiens, UniProt P22303). In words: biochemical.
Chain of acetylcholinesterase (AChE) (P22303 32-614, species assumed): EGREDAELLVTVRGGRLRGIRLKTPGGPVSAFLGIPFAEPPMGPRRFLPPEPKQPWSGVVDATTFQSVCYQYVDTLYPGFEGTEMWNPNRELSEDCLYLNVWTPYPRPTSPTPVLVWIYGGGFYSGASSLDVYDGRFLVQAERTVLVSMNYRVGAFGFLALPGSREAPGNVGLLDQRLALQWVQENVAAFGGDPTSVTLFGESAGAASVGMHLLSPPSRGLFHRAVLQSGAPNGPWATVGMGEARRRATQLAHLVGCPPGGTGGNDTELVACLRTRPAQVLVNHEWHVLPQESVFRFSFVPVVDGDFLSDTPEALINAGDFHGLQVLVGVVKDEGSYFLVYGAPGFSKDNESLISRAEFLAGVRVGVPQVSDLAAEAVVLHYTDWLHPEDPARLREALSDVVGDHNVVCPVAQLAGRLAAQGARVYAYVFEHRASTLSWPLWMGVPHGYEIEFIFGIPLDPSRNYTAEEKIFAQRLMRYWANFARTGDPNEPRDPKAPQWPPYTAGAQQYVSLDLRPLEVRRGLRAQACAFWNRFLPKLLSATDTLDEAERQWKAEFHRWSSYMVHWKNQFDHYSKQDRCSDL

Chain of butyrylcholinesterase (BuChE) (P06276 29-602): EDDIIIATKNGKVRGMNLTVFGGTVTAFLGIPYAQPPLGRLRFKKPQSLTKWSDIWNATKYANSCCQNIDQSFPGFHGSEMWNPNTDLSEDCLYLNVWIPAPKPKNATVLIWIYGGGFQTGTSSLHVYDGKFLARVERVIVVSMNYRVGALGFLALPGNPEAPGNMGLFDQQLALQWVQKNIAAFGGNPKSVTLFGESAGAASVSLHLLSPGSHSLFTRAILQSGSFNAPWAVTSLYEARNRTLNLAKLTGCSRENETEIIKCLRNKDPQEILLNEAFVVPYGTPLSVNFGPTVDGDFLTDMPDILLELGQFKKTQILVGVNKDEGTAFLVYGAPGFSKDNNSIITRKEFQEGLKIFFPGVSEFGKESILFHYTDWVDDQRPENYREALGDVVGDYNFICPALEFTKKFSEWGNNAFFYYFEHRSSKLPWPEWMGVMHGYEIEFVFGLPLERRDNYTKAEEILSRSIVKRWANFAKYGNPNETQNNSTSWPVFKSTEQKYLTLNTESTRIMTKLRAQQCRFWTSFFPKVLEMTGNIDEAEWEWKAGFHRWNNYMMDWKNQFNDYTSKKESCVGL

Consider `COc1cccc(C=NN=C(C)c2ccc(OCc3ccc(Br)cc3)cc2)c1O` [Compound 2b, 2-(((1-(4-((4-Bromobenzyl)oxy)phenyl)ethylidene)hydrazono)methyl)-6-methoxyphenol], for which the figures for the concentration for half-maximal inhibition (IC50) in assay [1] and in assay [2] were 35.31 ± 0.01 µM and 18.6 ± 0.21 µM, respectively.

As to `CC(=NN=Cc1ccc(C)cc1)c1ccc(OCc2ccc(Br)cc2)cc1` [Compound 2g, 1-(1-(4-((4-Bromobenzyl)oxy)phenyl)ethylidene)-2-(4-methylbenzylidene)hydrazine], the half-maximal inhibitory concentration (IC50) was 98.7 ± 1.18 µM in assay [1] and 62.28 ± 0.42 µM in assay [2].

In the case of `CC(=NN=Cc1cccc2ccccc12)c1ccc(OCc2ccc(Br)cc2)cc1` [Compound 2h, 1-(1-(4-((4-Bromobenzyl)oxy)phenyl)ethylidene)-2-(naphthalen-1-ylmethylene)hydrazine], the half-maximal inhibitory concentration (IC50) amounted to 166.3 ± 1.2 µM in assay [1] and 128.2 ± 0.98 µM in assay [2].

Regarding `CC(=NN=Cc1ccc(C)o1)c1ccc(OCc2ccc(Br)cc2)cc1` [Compound 2e, 1-(1-(4-((4-Bromobenzyl)oxy)phenyl)ethylidene)-2-((5-methylfuran-2-yl)methylene) hydrazine], the IC50 in assay [1] came to 136 ± 2.61 µM; in assay [2], 98.21 ± 0.01 µM.

Turning to `CC(=NN=Cc1ccc(Cl)cc1)c1ccc(OCc2ccc(Br)cc2)cc1` [Compound 2d, 1-(1-(4-((4-Bromobenzyl)oxy)phenyl)ethylidene)-2-(4-chlorobenzylidene)hydrazine], the IC50 in assay [1] worked out at 161.8 ± 0.07 µM; in assay [2] it was 139 ± 2.33 µM.

Consider `COc1ccc(C=NN=C(C)c2ccc(OCc3ccc(Br)cc3)cc2)cc1` [Compound 2f, 1-(1-(4-((4-Bromobenzyl)oxy)phenyl)ethylidene)-2-(4-methoxybenzylidene)hydrazine], for which the 50% inhibitory concentration (IC50) in assay [1] was found to be 76.3 ± 1.17 µM; in assay [2], 48.37 ± 0.06 µM.

With `CCN(CC)c1ccc(C=NN=C(C)c2ccc(OCc3ccc(Br)cc3)cc2)cc1` [Compound 2a, 4-(((1-(4-((4-bromobenzyl)oxy)phenyl)ethylidene)hydrazineylidene)methyl)-N,N-diethylaniline], the IC50 in assay [1] is 77.9 ± 1.46 µM; in assay [2], 44.36 ± 0.33 µM.

In the case of `CC(=NN=Cc1ccc(C=O)cc1)c1ccc(OCc2ccc(Br)cc2)cc1` [Compound 2i, 4-(((1-(4-((4-Bromobenzyl)oxy)phenyl)ethylidene)hydrazono)methyl)benzaldehyde], the half-inhibitory concentration (IC50) in assay [1] was 177 ± 3.53 µM; in assay [2] it was 141.8 ± 0.77 µM.

Regarding `CC(=NN=Cc1ccc(Br)cc1F)c1ccc(OCc2ccc(Br)cc2)cc1` [Compound 2c, 1-(4-Bromo-2-fluorobenzylidene)-2-(1-(4-((4-bromobenzyl)oxy)phenyl)ethylidene)hydrazine], the values for the IC50 in assay [1] and in assay [2] were 175 ± 2.96 µM and 150 ± 2.26 µM, respectively.
